The numbers were not newly measured in patent publication US20160311746A1, “METHOD OF PRODUCING ADIPIC ACID OR AT LEAST A RESULTANT PRODUCT THEREOF” (BASF SE, priority 2013, published 2016), which cites them from elsewhere.

For this series the following is noted: at about 47° C.

For `O=C(O)/C=C\C=C/C(=O)O` [cis,cis-muconic acid], the solubility in water entry was “about 1 g per 100 g of water”.
